Source: ChEMBL document CHEMBL1150977, “A quantitative analysis of kinase inhibitor selectivity” (Nat Biotechnol, 2008)
pKd: −log10 of the molar value.

Assays:
[1] = molecular target: T1, Serine/threonine-protein kinase Nek1 (Homo sapiens, UniProt Q96PY6)
T1 sequence (Q96PY6 whole entry): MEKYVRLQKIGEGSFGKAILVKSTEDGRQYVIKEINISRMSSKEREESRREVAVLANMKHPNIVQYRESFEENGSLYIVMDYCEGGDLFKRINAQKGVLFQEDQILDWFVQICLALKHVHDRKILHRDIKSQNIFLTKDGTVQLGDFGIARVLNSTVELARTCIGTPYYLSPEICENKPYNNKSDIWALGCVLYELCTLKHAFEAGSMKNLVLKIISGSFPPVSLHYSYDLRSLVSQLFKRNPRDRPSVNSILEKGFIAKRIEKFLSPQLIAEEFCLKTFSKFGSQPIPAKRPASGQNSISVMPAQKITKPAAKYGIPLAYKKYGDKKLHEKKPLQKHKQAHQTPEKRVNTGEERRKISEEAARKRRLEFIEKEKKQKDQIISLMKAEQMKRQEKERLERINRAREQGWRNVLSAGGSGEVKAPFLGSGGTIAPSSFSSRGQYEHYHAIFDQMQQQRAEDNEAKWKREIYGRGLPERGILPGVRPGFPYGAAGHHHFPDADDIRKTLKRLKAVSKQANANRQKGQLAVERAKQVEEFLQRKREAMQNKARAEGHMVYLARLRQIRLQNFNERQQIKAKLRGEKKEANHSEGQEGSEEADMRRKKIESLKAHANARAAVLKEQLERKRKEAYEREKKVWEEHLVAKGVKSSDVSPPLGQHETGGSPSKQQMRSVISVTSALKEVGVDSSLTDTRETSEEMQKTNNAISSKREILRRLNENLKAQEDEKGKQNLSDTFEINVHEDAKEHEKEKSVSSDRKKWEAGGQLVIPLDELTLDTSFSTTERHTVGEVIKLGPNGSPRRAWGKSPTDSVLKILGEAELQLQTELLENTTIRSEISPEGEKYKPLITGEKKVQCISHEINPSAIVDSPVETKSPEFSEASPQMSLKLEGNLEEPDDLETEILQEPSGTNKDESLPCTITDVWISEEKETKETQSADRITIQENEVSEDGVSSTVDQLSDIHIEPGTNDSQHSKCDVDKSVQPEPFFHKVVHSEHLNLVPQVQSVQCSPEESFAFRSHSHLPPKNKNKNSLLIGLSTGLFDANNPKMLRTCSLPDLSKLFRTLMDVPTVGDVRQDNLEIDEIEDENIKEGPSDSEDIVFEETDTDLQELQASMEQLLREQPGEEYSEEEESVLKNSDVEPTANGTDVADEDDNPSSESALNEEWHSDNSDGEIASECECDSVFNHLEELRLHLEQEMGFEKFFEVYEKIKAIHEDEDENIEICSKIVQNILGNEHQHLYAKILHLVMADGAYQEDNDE

[2] = molecular target: T2, MAP kinase-activated protein kinase 5 (Homo sapiens, UniProt Q8IW41)
T2 sequence (Q8IW41 whole entry): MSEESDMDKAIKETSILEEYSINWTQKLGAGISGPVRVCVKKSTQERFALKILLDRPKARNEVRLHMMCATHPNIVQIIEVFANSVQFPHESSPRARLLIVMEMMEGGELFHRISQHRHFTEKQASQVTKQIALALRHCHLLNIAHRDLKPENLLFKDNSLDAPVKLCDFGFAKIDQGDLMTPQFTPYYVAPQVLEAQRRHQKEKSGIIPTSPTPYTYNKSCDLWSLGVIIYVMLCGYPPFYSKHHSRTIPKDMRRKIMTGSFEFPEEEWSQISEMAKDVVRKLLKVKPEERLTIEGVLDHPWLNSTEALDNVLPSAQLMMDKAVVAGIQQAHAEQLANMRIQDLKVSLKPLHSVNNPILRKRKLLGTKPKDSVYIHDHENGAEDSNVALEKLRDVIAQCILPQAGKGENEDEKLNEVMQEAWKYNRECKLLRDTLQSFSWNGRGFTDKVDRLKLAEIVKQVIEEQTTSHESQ

[3] = molecular target: Serine/threonine-protein kinase SIK1 (Homo sapiens, UniProt P57059)
Chain of Serine/threonine-protein kinase SIK1 (P57059 whole entry): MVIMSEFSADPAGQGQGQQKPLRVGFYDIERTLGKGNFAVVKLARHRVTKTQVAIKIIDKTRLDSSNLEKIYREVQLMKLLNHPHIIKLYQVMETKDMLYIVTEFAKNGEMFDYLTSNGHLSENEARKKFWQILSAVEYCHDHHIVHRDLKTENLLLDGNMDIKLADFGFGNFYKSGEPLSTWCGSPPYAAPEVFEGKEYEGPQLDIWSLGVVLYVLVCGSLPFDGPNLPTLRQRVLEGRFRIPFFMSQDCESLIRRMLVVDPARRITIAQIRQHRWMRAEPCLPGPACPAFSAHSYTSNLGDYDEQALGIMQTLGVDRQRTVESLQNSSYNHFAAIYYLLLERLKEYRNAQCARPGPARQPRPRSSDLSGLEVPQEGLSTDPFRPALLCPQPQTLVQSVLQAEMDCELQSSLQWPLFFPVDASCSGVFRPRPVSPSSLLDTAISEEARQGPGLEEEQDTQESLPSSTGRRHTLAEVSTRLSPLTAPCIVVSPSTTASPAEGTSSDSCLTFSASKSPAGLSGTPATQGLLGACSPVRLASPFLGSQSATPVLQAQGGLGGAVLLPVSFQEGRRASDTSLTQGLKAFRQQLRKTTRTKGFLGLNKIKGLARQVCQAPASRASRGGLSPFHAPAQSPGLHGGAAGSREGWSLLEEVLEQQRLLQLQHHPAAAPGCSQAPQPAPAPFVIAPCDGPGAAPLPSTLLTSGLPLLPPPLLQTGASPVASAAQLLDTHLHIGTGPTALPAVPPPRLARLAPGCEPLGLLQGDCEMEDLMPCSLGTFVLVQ

[4] = molecular target: T3, Myosin light chain kinase family member 4 (Homo sapiens, UniProt Q86YV6)
T3 sequence (Q86YV6 whole entry): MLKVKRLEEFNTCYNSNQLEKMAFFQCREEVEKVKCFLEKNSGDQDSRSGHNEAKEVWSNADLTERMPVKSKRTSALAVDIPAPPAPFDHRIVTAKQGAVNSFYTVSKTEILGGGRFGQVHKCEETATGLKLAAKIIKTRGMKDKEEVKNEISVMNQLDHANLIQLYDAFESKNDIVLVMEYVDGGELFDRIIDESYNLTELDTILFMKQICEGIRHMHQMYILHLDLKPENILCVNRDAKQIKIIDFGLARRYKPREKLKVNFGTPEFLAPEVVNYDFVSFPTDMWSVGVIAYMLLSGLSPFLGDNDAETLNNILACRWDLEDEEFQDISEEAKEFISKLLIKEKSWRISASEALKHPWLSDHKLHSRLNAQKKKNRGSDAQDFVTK

[5] = molecular target: Death-associated protein kinase 3 (Homo sapiens, UniProt O43293)
Chain of Death-associated protein kinase 3 (O43293 whole entry): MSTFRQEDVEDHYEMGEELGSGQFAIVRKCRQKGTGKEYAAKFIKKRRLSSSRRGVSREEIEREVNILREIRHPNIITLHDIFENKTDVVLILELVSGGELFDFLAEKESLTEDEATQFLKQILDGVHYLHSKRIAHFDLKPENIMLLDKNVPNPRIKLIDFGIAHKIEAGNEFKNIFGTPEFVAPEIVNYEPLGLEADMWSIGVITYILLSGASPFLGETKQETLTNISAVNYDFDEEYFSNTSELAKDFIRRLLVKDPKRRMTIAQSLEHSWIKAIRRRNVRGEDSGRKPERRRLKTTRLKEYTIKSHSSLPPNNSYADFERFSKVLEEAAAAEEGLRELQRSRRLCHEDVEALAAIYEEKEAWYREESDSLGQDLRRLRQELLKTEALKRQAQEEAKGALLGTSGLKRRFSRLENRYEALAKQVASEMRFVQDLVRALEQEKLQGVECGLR

[6] = molecular target: T4, Serine/threonine-protein kinase DCLK1 (Homo sapiens, UniProt O15075)
T4 sequence (O15075 whole entry): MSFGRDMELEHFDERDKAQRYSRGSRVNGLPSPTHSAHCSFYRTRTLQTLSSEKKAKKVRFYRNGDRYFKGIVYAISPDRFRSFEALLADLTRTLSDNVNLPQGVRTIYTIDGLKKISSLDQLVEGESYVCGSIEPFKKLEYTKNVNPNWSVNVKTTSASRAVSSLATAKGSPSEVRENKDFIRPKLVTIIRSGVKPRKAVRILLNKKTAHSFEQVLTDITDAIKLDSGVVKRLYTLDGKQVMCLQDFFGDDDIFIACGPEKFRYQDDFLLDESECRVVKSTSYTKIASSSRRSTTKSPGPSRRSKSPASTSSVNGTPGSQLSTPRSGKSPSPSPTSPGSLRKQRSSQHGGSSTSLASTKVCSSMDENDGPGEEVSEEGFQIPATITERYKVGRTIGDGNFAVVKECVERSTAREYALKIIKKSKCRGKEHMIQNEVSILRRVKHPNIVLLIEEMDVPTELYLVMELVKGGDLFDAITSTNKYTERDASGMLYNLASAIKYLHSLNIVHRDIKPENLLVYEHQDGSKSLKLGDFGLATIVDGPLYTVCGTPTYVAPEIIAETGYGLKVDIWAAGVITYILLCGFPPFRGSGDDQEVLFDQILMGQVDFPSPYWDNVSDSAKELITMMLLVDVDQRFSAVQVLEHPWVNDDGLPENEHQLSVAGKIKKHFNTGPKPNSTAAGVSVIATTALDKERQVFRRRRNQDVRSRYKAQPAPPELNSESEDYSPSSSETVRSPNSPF

Measured: pKd

CCN1CCN(Cc2ccc(NC(=O)Nc3ccc(Oc4cc(NC)ncn4)cc3)cc2C(F)(F)F)CC1 [AST-487]
< 5.00: [1]

COCC(=O)NC/C=C/c1ccc2ncnc(Nc3ccc(Oc4ccc(C)nc4)c(C)c3)c2c1 [CP-724714]
< 5.00: all assays above

Nc1nc(Nc2ccc(S(N)(=O)=O)cc2)nn1C(=O)c1c(F)cccc1F [JNJ-7706621]
< 5.00: [2] | [4] | [5] | [1]

CCOc1cc2ncc(C#N)c(Nc3ccc(F)c(Cl)c3)c2cc1NC(=O)/C=C/CN(C)C [PELITINIB]
< 5.00: [2] | [3] | [4] | [6]

Oc1ccc(-c2nc(-c3ccncc3)c(-c3ccc(F)cc3)[nH]2)cc1 [SB-202190]
< 5.00: all assays above

NC(=O)c1ccc(-c2nc(-c3ccc4c(c3)OCO4)c(-c3ccccn3)[nH]2)cc1 [SB-431542]
< 5.00: all assays above
